{"source": "patent US20080233219A1", "about": "“Composition for diet comprising plant essential oil as active ingredient, sheet type composition for diet comprising thereof, percutaneous pharmaceutical agent for diet comprising thereof, and method for producing thereof” (NATURE TECHNOLOGY INC., priority 2005, published 2008)", "origin": "cited, not measured here", "key": {"[1]": {"settings": "in three month"}, "[2]": {"settings": "in vivo"}}}
{"smiles": "OC1(c2ccc(Cl)cc2)c2ccccc2C2=NCCN21", "note": "(centres unmarked) [Mazindol]", "values": [{"measurement": "gradual weight loss, average", "setting": "[1]", "value": "about 4.5 kg"}, {"measurement": "side effects", "setting": "[2]", "value": "not serious ones except cotton mouth, astriction, indigestible feeling"}]}
